{"source": "patent US20250161245A1", "about": "“A MIXTURE OF UREA, BIURET AND N-CONTAINING BY-PRODUCTS CREATED DURING BIURET PRODUCTION AS A DIETARY NON-PROTEIN NITROGEN-SOURCE FOR RUMINANTS AND USES THEREOF” (Yara International ASA, priority 2022, published 2025)", "key": {"[1]": {"experiment": "animal performance of steers with NPN supplementation (Example 3)", "assay_type": "in vivo, crossbred yearling steers", "from_the_text": "A total of 72 crossbred yearling steers [303 kg±29 kg initial body weight (BW) were stratified by body weight (BW) and randomly allocated to three treatments. All steers consumed a basal diet of corn silage, cotton-gin trash, and a premix of vitamins and minerals.\nThe steers were housed in pens (8 steers/pen, 3 pens/treatment). The steers were supplemented with two different NPN-sources on an isonitrogenous basis, considering as reference the N provided by urea when included at 1 wt. % of the diet in dry matter (DM) basis.\nIn Table 5, the composition of the basal diet supplemented with two different types of NPN, i.e. urea (Urea) (46% N) and a mixture of urea and biuret according to the present disclosure (UB), with composition as in example 1 (41% N) is shown.\nThe gain to feed ratio (G:F) was computed as the ratio of the average daily gain (ADG) to daily dry matter intake (DMI). The feed intake was recorded daily. The individual intake was determined via the GrowSafe® intake monitoring system. In cattle management, GrowSafe Systems is a commonly used tool to closely monitor individual animal feeding data using radio frequency identification (RFID) tag technology. The animals are equipped with a unique RFID tag that is read by the feed bunks each time the animal lowers its head into the bunk to consume feed. Average daily weight gain (ADG) and feed efficiency were calculated during the performance evaluation. The ADG was determined by the difference between the final BW and the initial BW divided by the number of days of the performance evaluation (56 days). The initial BW was calculated as the average unshrunk BW of […] on days 16 and 17. The final BW was the average unshrunk BW measured on days 72 and 73. The unshrunk BW was obtained every 14 days."}, "[2]": {"tested_on": "beef steers", "experiment": "enteric methane emission, SF6 tracer technique (Example 3)", "assay_type": "in vivo, crossbred yearling steers", "method": "Methane emission was measured in all steers for five consecutive days using the SF6 tracer technique (Johnson et al., 1994; Henry et al., 2020). In this technique, the steers received a calibrated permeation tube filled with SF6 (3.1 g+0.2 g) before the measurement period. The average SF6 release rate was […]+1.1 mg/d. After five days of training, a vacuum gas collector canister was attached to each animal to collect a sample of daily gas production. Each day at the same hour, a new vacuum canister was replaced throughout the five days of the measurement period. Five collection canisters were used to determine environmental CH4 and SF6 concentrations. A gas sample was taken from each canister and conserved in 120 ml bottles for posterior analysis of CH4 and SF6 using gas chromatography. For the current experiment, only steers with a least three successful days of collection and measurement were considered in the final analysis. Gas samples were analyzed by gas chromatography (Agilent 7820A GC, Agilent Technologies, Palo Alto, CA). A flame ionization and electron capture detector were used for CH4 and SF6 analysis, respectively, with a capillary column (Plot Fused Silica 25 m×0.32 mm, Coating Molsieve 5A, Varian CP7536, Varian Inc., Lake Forest, CA). The injector, column and detector temperatures for CH4 analysis were 80, 160 and 200° C., respectively. For SF6, temperatures were 50, 30 and 300° C. for the injector, the column and the detector, respectively. The carrier gas for CH4 and SF6 was N2. The emissions of CH4 were calculated according to the next equation:\n[formula] • QCH4=CH4 emissions per animal (g/day) • QSF6=SF6 release rate (mg/day) • [CH4]γ=the concentration of CH4 in the animals' collection canister • [CH4]β=the concentration of CH4 in the environmental collection canister • [SF6]γ=the concentration of SF6 in the animals' collection canister • [SF6]β=the concentration of SF6 in the environmental collection canister"}, "[3]": {"conditions": "five consecutive days, SF6 tracer"}}, "data": [{"smiles": "NC(N)=O", "note": "[Urea, urea]", "values": [{"measurement": "DMI", "setting": "[1]; days 0-14", "result": 6.82, "unit": "kg/day"}, {"measurement": "G:F", "setting": "[1]; days 0-14", "result": 0.10, "unit": "kg/kg"}, {"measurement": "DMI", "setting": "[1]; days 0-28", "result": 7.03, "unit": "kg/day"}, {"measurement": "G:F", "setting": "[1]; days 0-28", "result": 0.11, "unit": "kg/kg"}, {"measurement": "DMI", "setting": "[1]; days 0-42", "result": 7.24, "unit": "kg/day"}, {"measurement": "G:F", "setting": "[1]; days 0-42", "result": 0.14, "unit": "kg/kg"}, {"measurement": "ADG", "setting": "[1]; days 0-56", "result": 1.01, "unit": "kg"}, {"measurement": "DMI", "setting": "[1]; days 0-56", "result": 7.29, "unit": "kg/day"}, {"measurement": "G:F", "setting": "[1]; days 0-56", "result": 0.14, "unit": "kg/kg"}, {"measurement": "DMI (% of BW)", "setting": "[1]; steers", "result": "2.31 % of BW"}, {"measurement": "NEg", "setting": "[1]; steers", "result": "0.55 Mcal/kg of DM"}, {"measurement": "Initial BW", "setting": "[1]; steers, baseline, NPN 1.00 wt. % urea or 1.12 wt. % UB of diet DM", "result": 288.69, "unit": "kg"}, {"measurement": "Final BW", "setting": "[1]; steers, end of 56 days performance evaluation", "result": 343.69, "unit": "kg"}, {"measurement": "DM intake", "setting": "[2]; Table 7 (methane measurement)", "result": 6.08, "unit": "kg/day"}, {"measurement": "Methane emission (g/kg ADG)", "setting": "[2]; [3]", "result": 213.79, "unit": "g/kg ADG"}, {"measurement": "Methane emission (g/kg DMI)", "setting": "[2]; [3]", "result": 36.59, "unit": "g/kg DMI"}, {"measurement": "Methane emission (g/kg OMI)", "setting": "[2]; [3]", "result": 38.68, "unit": "g/kg OMI"}]}]}
